How the values were obtained:
[1] = target: T1, Prostaglandin G/H synthase 2 (Homo sapiens) (UniProt P35354); assay: Inhibition of human COX2 assessed as reduction in PGF2alpha level at 100 uM using arachidonic acid as substrate preincubated for 10 mins followed by substrate addition by ELISA relative to control
T1 sequence (whole entry): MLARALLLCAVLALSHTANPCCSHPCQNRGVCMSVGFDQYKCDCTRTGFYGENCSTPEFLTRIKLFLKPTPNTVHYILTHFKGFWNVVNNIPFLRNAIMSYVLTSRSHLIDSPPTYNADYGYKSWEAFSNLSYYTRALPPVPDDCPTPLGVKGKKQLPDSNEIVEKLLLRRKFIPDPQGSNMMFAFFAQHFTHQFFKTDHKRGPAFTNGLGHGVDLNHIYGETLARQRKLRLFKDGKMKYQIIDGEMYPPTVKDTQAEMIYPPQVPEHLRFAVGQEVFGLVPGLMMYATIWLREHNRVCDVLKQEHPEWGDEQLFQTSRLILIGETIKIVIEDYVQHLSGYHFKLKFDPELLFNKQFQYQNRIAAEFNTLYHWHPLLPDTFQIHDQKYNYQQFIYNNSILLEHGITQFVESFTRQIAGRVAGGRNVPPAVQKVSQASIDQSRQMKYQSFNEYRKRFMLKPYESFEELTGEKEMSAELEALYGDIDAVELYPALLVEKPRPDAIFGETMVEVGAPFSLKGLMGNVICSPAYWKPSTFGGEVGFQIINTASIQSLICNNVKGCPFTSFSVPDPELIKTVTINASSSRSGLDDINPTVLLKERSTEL

[2] = target: T2, COX1 (Prostaglandin G/H synthase 1) (Ovis aries, UniProt P05979); assay: Inhibition of ovine COX1 assessed as reduction in PGF2alpha level at 100 uM using arachidonic acid as substrate preincubated for 10 mins followed by substrate addition by ELISA relative to control; settings: sheep, ovine COX1 enzyme, probe arachidonic acid
T2 sequence (P05979 whole entry): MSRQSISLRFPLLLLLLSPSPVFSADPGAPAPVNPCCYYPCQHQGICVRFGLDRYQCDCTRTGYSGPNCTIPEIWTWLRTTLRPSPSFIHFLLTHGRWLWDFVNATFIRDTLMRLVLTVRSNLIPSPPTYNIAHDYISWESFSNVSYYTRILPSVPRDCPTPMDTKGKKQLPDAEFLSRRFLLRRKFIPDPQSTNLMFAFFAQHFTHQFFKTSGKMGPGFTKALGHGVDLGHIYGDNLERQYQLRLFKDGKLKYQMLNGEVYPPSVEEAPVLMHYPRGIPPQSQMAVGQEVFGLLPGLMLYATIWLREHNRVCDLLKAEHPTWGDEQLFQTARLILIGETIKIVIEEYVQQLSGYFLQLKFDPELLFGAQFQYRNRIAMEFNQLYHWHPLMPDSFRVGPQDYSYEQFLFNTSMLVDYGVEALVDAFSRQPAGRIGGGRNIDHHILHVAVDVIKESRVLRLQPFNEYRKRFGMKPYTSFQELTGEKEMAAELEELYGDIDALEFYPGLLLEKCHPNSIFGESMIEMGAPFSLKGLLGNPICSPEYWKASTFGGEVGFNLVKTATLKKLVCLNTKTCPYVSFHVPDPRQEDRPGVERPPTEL

[3] = Selectivity index, ratio of IC50 for ovine COX1 to IC50 for human COX2
[4] = target: T3, Prostaglandin G/H synthase 2 (Homo sapiens, UniProt P35354); assay: Inhibition of human COX2 assessed as reduction in PGF2alpha level using arachidonic acid as substrate preincubated for 10 mins followed by substrate addition by ELISA
T3 sequence (P35354 whole entry): T1 sequence (whole entry)

[5] = target: T4, Prostaglandin G/H synthase 1 (Ovis aries, UniProt P05979); assay: Inhibition of ovine COX1 assessed as reduction in PGF2alpha level using arachidonic acid as substrate preincubated for 10 mins followed by substrate addition by ELISA
T4 sequence (P05979 whole entry): T2 sequence (P05979 whole entry)

MCF7 [6] = assay: Antiproliferative activity against human MCF7 cells after 72 hrs by MTT assay; settings: MCF7, 72 h
MCF7 [7] = assay: Antiproliferative activity against human MCF7 cells up to 100 uM after 72 hrs by MTT assay relative to control; type: functional
[8] = Solubility of the compound in DMEM culture medium at >12.5 uM; type: physicochemical
[9] = target: T1, Prostaglandin G/H synthase 2 (Homo sapiens); assay: Inhibition of COX2 in human MCF7 cells assessed as reduction in PGE2 level at 12.5 uM after 72 hrs by ELISA relative to control; type: cell-based
[10] = target: T1, Prostaglandin G/H synthase 2 (Homo sapiens); assay: Inhibition of COX2 in human MCF7 cells assessed as reduction in PGE2 level after 72 hrs by ELISA; type: cell-based
[11] = target: T1, Prostaglandin G/H synthase 2 (Homo sapiens); assay: Inhibition of COX2 in human MCF7 cells assessed as reduction in PGE2 level at 6.25 uM after 72 hrs by ELISA relative to control; type: cell-based

| Structure (SMILES) | inhibition [1] [%] | inhibition at 100 µM [2] [%] | further results |
| --- | --- | --- | --- |
| Cc1ccc(-c2cc(C(F)(F)F)nn2-c2ccc(S(N)(=O)=O)cc2)cc1 [CELECOXIB] |  |  | IC50 (MCF7 [6]): 49.7 µM |
| Oc1ccc(/C=C/c2cc[n+](Cc3ccccc3Cl)cc2)cc1 | 10.2 | 1.57 |  |
| Oc1ccccc1/C=C/c1ccncc1 | 8.56 | 9.71 |  |
| O=[N+]([O-])c1ccc(/C=C/c2ccc(O)cc2)c([N+](=O)[O-])c1 | 29 | 6.09 |  |
| Oc1ccc(/C=C/c2ccc(Br)cc2)cc1 | 14.3 | 6.8 |  |
| Oc1ccc(/C=C/c2ccncc2)cc1 | 8.88 | 17.3 |  |
| COc1cc(/C=C/c2ccc([N+](=O)[O-])cc2)cc(OC)c1OC |  |  | Activity (MCF7 [7]): 30%; Ratio IC50 [3]: 1.23; IC50 [4]: 2.17 µM; IC50 [5]: 2.67 µM |
| Oc1cccc(/C=C/c2ccncc2)c1 | 20.4 | 23.1 |  |
| Oc1ccc(/C=C/c2ccc(O)cc2)cc1 [TRANS-4,4'-DIHYDROXYSTILBENE] | 11.1 | 4.92 |  |
| CCOc1cccc(/C=C/c2ccc([N+](=O)[O-])cc2[N+](=O)[O-])c1 | 27.5 | 15.4 |  |
| Oc1ccc(/C=C/c2cc[n+](Cc3cccc(Cl)c3)cc2)cc1 | 21.9 | 11.2 |  |
| Oc1ccc(/C=C/c2cc[n+](Cc3ccc(Cl)cc3)cc2)cc1 | 5.38 | 15.7 |  |
| COc1ccc(/C=C/c2ccc([N+](=O)[O-])cc2)cc1OC |  |  | Ratio IC50 [3]: 0.14; IC50 [4]: 4.69 µM; IC50 [5]: 0.659 µM |
| O=[N+]([O-])c1ccc(/C=C/c2cc(O)c(O)c(O)c2)cc1 |  |  | solubility [8]: Insoluble; Activity (MCF7 [7]): 30%; Ratio IC50 [3]: 62.8; inhibition [9]: 33.9%; inhibition [10]: Dose-dependent effect; inhibition [11]: 24.1%; IC50 [4]: 0.279 µM; IC50 [5]: 17.5 µM |
| CC(=O)Oc1cccc(/C=C/c2ccc([N+](=O)[O-])cc2[N+](=O)[O-])c1 | 34.1 | 28.3 |  |

The next lines start with results.

| inhibition [1] [%] | inhibition at 100 µM [2] [%] | Structure (SMILES) | further results |
| --- | --- | --- | --- |
| 15.7 | 3.36 | O=[N+]([O-])c1ccc(/C=C/c2ccc(OCc3ccccc3)cc2)cc1 |  |
| 77.4 | 54.6 | CCOc1ccc(/C=C/c2ccc([N+](=O)[O-])cc2)cc1 | Ratio IC50 [3]: 21.2; IC50 [4]: 4.02 µM; IC50 [5]: 85 µM |
| 23.4 | 3.16 | CC(=O)Oc1ccc(/C=C/c2ccc(OC(C)=O)cc2)cc1 |  |
| 37.1 | 22.2 | O=[N+]([O-])c1ccc(/C=C/c2ccc(O)cc2)cc1 |  |
| 12.3 | 39.2 | CCOc1ccc(/C=C/c2ccc(Cl)cc2)cc1 |  |
| 71.8 | 59.3 | COC(=O)COc1ccc(/C=C/c2ccc(Cl)cc2)cc1 | Ratio IC50 [3]: 5.45; IC50 [4]: 7.52 µM; IC50 [5]: 41 µM |
| 35 | 16.3 | O=[N+]([O-])c1ccc(/C=C/c2ccccc2)cc1 |  |
| 40.8 | 32.3 | CCOc1ccc(/C=C/c2ccccc2)cc1 |  |
| 23.4 | 2.42 | CCOc1cccc(/C=C/c2ccc([N+](=O)[O-])cc2)c1 |  |
| 3.73 | 9.64 | Oc1ccc(/C=C/c2ccc(Cl)cc2)cc1 |  |
| 44.5 | 28.5 | COC(=O)COc1ccc(/C=C/c2ccc(OCC(=O)OC)cc2)cc1 |  |
| 40.4 | 14.1 | CCOc1ccc(/C=C/c2ccc([N+](=O)[O-])cc2[N+](=O)[O-])cc1 |  |
| 66.3 | 59.6 | COC(=O)COc1ccc(/C=C/c2ccc([N+](=O)[O-])cc2)cc1 | Ratio IC50 [3]: 4.13; IC50 [4]: 7.46 µM; IC50 [5]: 40.8 µM |
| 39.9 | 20.5 | CC(=O)Oc1ccc(/C=C/c2ccccc2)cc1 |  |

Source: ChEMBL document CHEMBL4177711, “Synthesis, in vitro and in silico evaluation of novel trans-stilbene analogues as potential COX-2 inhibitors” (Bioorg Med Chem, 2018)
